{"source": "PubChem BioAssay AID1508591", "data": [{"conditions": "rat; liver microsomes; pH 7.4; 15.0 min; 1.0 µM", "units": {"half-life": "min"}, "values": [{"smiles": "COc1ccc2c(c1)CCc1c-2n[nH]c1C(=O)N1CCc2c(nc3cc(-c4ccccc4)[nH]n3c2=O)C1", "half-life": 27.3}, {"smiles": "COc1ccc(C(=O)CCN(C)C)cc1F", "half-life": 1.08}, {"smiles": "CCOc1ccc(-c2nc(SCC(=O)Nc3ccc(C)c(C)c3)n3[nH]c(=O)cc3n2)cc1", "half-life": 19.9}, {"smiles": "O=C(NCc1ccc(S(=O)(=O)c2cccc(C(F)(F)F)c2)cc1)c1cnc2[nH]ncc2c1", "half-life": "> 30"}, {"smiles": "CCc1nc2c(sc3nc4c(cc32)COC(C)(C)C4)c(=O)n1Cc1ccco1", "half-life": 6.88}, {"smiles": "CC(=O)c1c(C)[nH]c(C(=O)Nc2cccc([S+](=O)([O-])Nc3ccccn3)c2)c1C", "half-life": "> 30"}, {"smiles": "CC(=O)N1CCc2c(sc3c2c(=O)n(-c2ccccc2Cl)c(=O)n3Cc2cccc(C)c2)C1", "half-life": 1.41}, {"smiles": "COc1cc2c(c(OC)c1OC)-c1ccc(OC)c(=O)cc1[C@@H](NC(C)=O)CC2", "half-life": "> 30"}, {"smiles": "c1cc(-c2cc(-c3ccncc3)c3cncn3c2)c2[nH]ncc2c1", "half-life": 10.1}, {"smiles": "COc1ccc(-n2nc(C)c([C@@H]3C=C[C@@H](NCc4ccc(N(C)C)cc4)C3)c2C)cc1", "half-life": 2.69}, {"smiles": "Cc1ccc(O)c(-c2cc(-c3ccccc3C)[nH]n2)c1", "half-life": 24.4}, {"smiles": "O=C(Cc1ccc2ccccc2c1)Nc1ccc(S(=O)(=O)Nc2nccs2)cc1", "half-life": "> 30"}, {"smiles": "COc1ccc(-c2ccc3ncc(Nc4ccc(C(N)=O)cc4)n3n2)cc1OC", "half-life": "> 30"}, {"smiles": "FC(F)(F)c1cccc(N2CCN(C(=S)Nc3ccccn3)CC2)c1", "half-life": 15.5}, {"smiles": "O=C1CCCC2=C1C(c1[nH]ncc1Cl)N=C(Nc1nc3cc([S+](=O)([O-])N4CCCC4)ccc3o1)N2", "note": "(configuration not stated)", "half-life": 8}, {"smiles": "COc1ccc(-c2noc(CSc3nnc(Cc4ccccc4)n3-c3ccc(F)cc3)n2)cc1", "half-life": 1.69}, {"smiles": "COc1ccc(OC)c(-c2nc3c(C#N)c[nH]n3c2NC2CCCCC2)c1", "half-life": 4.2}, {"smiles": "C/C(=N\\NC(N)=S)C1=CCC2C3CC[C@H]4CC(O)CC[C@]4(C)C3CC[C@]12C", "note": "(some centres not stated)", "half-life": "> 30"}, {"smiles": "CSc1ccc(/C=C/c2nc3ccccc3n2S(=O)(=O)c2ccc(Br)cc2)cc1", "half-life": 6.3}, {"smiles": "CNc1oc(-c2cccc3ccccc23)nc1C#N", "half-life": 17.7}, {"smiles": "COc1oc(-c2cccc3ccccc23)nc1C(=O)O", "half-life": "> 30"}, {"smiles": "Cc1ccc(-c2csc(N3CCC(C(N)=O)CC3)n2)cc1", "half-life": 2.22}, {"smiles": "Cc1noc(C)c1-c1cc(-c2ccc3c(c2)C(=O)NC3)cn2cncc12", "half-life": "> 30"}, {"smiles": "O=C(NCc1ccccc1)c1nc(S(=O)(=O)Cc2ccc(F)cc2)ncc1Cl", "half-life": 1.98}, {"smiles": "COc1ccccc1C(=O)NC1CCCc2c1[nH]c1c(Cl)cccc21", "note": "(configuration not stated)", "half-life": 2.31}, {"smiles": "O=C(NCCCO)c1ccc(-c2ncc3cnc(-c4cccc(F)c4)cn23)cc1", "half-life": "> 30"}, {"smiles": "Cc1cccc(-n2c(C)cc(C=C(C#N)C#N)c2C)c1", "half-life": 1.64}, {"smiles": "O=[S+]([O-])(Nc1ccc(C2CCNCC2)cc1)c1ccc(NCc2ccc(Cl)cc2O)cc1", "half-life": "> 30"}, {"smiles": "O=C(NCCCCc1ccccc1)C1CCN(c2nc(-c3ccc(Br)cc3)cs2)CC1", "half-life": 4.1}, {"smiles": "O=C1CCCC2=C1C(c1ccncc1Cl)N=C(Nc1nc3ccccc3o1)N2", "note": "(configuration not stated)", "half-life": 6.6}, {"smiles": "O=C(NCC1Cn2cccc2CN1Cc1cccnc1)Nc1ccccc1", "note": "(configuration not stated)", "half-life": 1.41}, {"smiles": "Cc1ccccc1CN1C2=NCCN2C(=O)C2=C1CCN(Cc1ccccc1)C2", "half-life": 6.82}, {"smiles": "Cc1cc(-c2nnc3n2CCCCC3)c(C)n1-c1cccc2ccccc12", "half-life": 2.1}, {"smiles": "CNc1cc(-c2nc(Nc3ccc(F)c(F)c3)c3ccccc3n2)ccn1", "half-life": 8.2}, {"smiles": "Nc1nc(N)c2c(OCC3CCN(Cc4ccccc4F)CC3)cccc2n1", "half-life": "> 30"}, {"smiles": "Cc1c(Cl)cccc1NC(=O)CNS(=O)(=O)c1cccs1", "half-life": 5.47}, {"smiles": "Cc1cnc(-c2ccccc2C(C)C)nc1NCC1CN(c2cccnc2)C1", "half-life": 2.6}, {"smiles": "CCN(CC)CCCC(C)Nc1cc(/C=C/c2ccccc2Cl)nc2cc(Cl)ccc12", "note": "(configuration not stated)", "half-life": 7.34}, {"smiles": "NC(=O)C1CCN(c2nc(-c3cccnc3)cs2)CC1", "half-life": "> 30"}, {"smiles": "Cn1ccc2c(C(=O)NCCC(N)=O)nc(-c3cccc(CO)c3)cc21", "half-life": "> 30"}, {"smiles": "O=C(c1cnc(N2CCCCC2)c2ccccc12)N1CCN(c2ccc(Cl)cc2)CC1", "half-life": 2.8}, {"smiles": "CN([C@@H](Cc1ccc(O[S+](=O)([O-])c2cccc3cnccc23)cc1)C(=O)N1CCN(C(=O)OCc2ccccc2)CC1)[S+](=O)([O-])c1cccc2cnccc12", "half-life": 2.7}, {"smiles": "O=C(Nc1nnc(-c2cccs2)o1)c1ccc(Cl)cc1", "half-life": 2.9}, {"smiles": "C#CCNC(=O)c1nc(-c2ccc(Cl)nc2)c2ccccn12", "half-life": 24}, {"smiles": "COc1ccc(Nc2ncc(C(=O)Nc3cccc(Cl)c3)c3ccccc23)cc1", "half-life": 16.5}, {"smiles": "O=C(O)CNC(=O)c1c(O)c2ccccc2n(Cc2ccccc2)c1=O", "half-life": 23.6}, {"smiles": "CN1CCCC1CCOC(c1cc2nccc(C(=O)O)c2[nH]1)c1ccccc1Cl", "note": "(configuration not stated)", "half-life": "> 30"}, {"smiles": "Cc1ccc(S(=O)(=O)Nc2ccc(OC(F)(F)F)cc2C(=O)Nc2nc(-c3ccccc3)cs2)cc1", "half-life": 24}, {"smiles": "COc1ccc(-c2ccc3nc(-c4cc(F)ccc4F)oc3c2)c(OC)c1OC", "half-life": "> 30"}, {"smiles": "CCCCOc1ccc(C(=O)N2CCC(c3n[nH]c(=O)n3-c3ccc(C)cc3)CC2)cc1", "half-life": 5.43}, {"smiles": "CC(C)c1ccc(S(=O)(=O)c2cnc(SCC(=O)Nc3ccc4c(c3)OCCO4)[nH]c2=O)cc1", "half-life": 3.84}, {"smiles": "CC(C)c1ccccc1-c1ncc(F)c(NCC2CCN(c3cccnc3)CC2)n1", "half-life": 3}, {"smiles": "C/C=C1/CN2CC[C@@]34c5ccccc5N(C)[C@@H]3[C@@H]2C[C@@H]1[C@H]4C(=O)OC", "half-life": 4.13}, {"smiles": "Clc1ccc2ncc(-c3cccc(NC4CCNC4)n3)n2c1", "note": "(configuration not stated)", "half-life": 21.8}, {"smiles": "CCCOC(=O)c1ccc(Oc2c(-c3ccc(O)cc3O)n[nH]c2C)cc1", "half-life": 3.04}, {"smiles": "CC(C)Oc1ccc(CCNC(=O)c2cc3sccc3n2Cc2ccccc2)cc1OC(C)C", "half-life": 2.7}, {"smiles": "COc1ccc(C2c3[nH]c4ccc(OC)cc4c3CCN2C(=O)Nc2ccccc2)cc1", "note": "(configuration not stated)", "half-life": 25.7}, {"smiles": "CNc1oc(-c2ccccc2-c2ccccc2)nc1C#N", "half-life": 5.8}, {"smiles": "CC(=O)c1ccc(N2CCN(S(=O)(=O)c3ccc4c(c3)n(C)c(=O)n4C)CC2)cc1", "half-life": "> 30"}, {"smiles": "Cc1ccc(OCCn2c(CCNC(=O)C3CCCCC3)nc3ccccc32)cc1", "half-life": 1.6}, {"smiles": "COc1ccc(NS(=O)(=O)c2ccc(C)cc2)c(C(=O)Nc2nc(-c3ccccc3)cs2)c1", "half-life": 4.5}, {"smiles": "O=C(c1csnn1)N1CCC2(CCCN(C(c3ccccc3)c3ccccc3)C2)CC1", "half-life": 2.1}, {"smiles": "NC(=O)C1CCN(c2nc(-c3ccc(Br)cc3)cs2)CC1", "half-life": 2.06}, {"smiles": "COc1ccc(O)c2c(=O)c3c(OC)cc4c(c3oc12)C1C=COC1O4", "note": "(configuration not stated)", "half-life": 2.79}, {"smiles": "COc1ccccc1CNc1ccc(S(=O)(=O)Nc2nccs2)cc1", "half-life": 2.8}, {"smiles": "Oc1ccc(CNc2ccc(F)cc2F)c2cccnc12", "half-life": 3.19}, {"smiles": "Cc1ccc(S(=O)(=O)Nc2cnccc2C(=O)Nc2nc(-c3ccncc3)cs2)cc1", "half-life": 17}, {"smiles": "Cc1ccc(NS(=O)(=O)c2cccc(C(=O)Nc3nc(-c4ccccc4)cs3)c2)cc1", "half-life": 6.7}, {"smiles": "CCOc1ccc(CCNC(=O)c2ccnn2Cc2cccc(C)c2)cc1OCC", "half-life": 1.5}, {"smiles": "O=C1CCCC2=C1C(c1[nH]ncc1Cl)N=C(Nc1nc3cccc(Cl)c3o1)N2", "note": "(configuration not stated)", "half-life": 4.5}, {"smiles": "O=C(Nc1nc(-c2ccc(F)cc2)cs1)c1ccncc1NS(=O)(=O)c1ccc(F)cc1", "half-life": "> 30"}, {"smiles": "Fc1cc(Nc2nc(-c3ccncc3)nc3ccccc23)ccc1OC(F)(F)F", "half-life": "> 30"}, {"smiles": "CCOc1ccc(CCNC(=O)c2cc3sccc3n2C)cc1OCC", "half-life": 1.6}, {"smiles": "COc1ccc(-n2nc(C3CCCN(C(=O)c4ccc(C)cc4)C3)[nH]c2=O)cc1", "note": "(configuration not stated)", "half-life": 23.9}, {"smiles": "Cc1ccccc1C(=O)N1CCc2cc(-c3nc(NC(=O)Cc4ccc5c(c4)OCCO5)sc3C)ccc21", "half-life": 22}, {"smiles": "CCOc1ccc(CCNC(=O)c2cc3ccccc3n2C)cc1OCC", "half-life": 1.38}, {"smiles": "COc1nccc(-c2nc(Nc3ccc(F)c(F)c3)c3ccccc3n2)c1OC", "half-life": 26}, {"smiles": "O=S(=O)(Nc1ccc(C2CCNCC2)cc1)c1ccc(NCc2cccc(Cl)c2O)cc1", "half-life": 20}, {"smiles": "Cc1ccc(NC2=C(c3ccc(C(F)(F)F)cc3)C(=O)c3ccccc32)cc1C", "half-life": 5.08}, {"smiles": "COC(=O)c1ccc2c(c1)nc1n2[C@@H](CNC(C)=O)COC1", "half-life": "> 30"}, {"smiles": "COc1ccc(-c2csc(C3=C(O)CN(Cc4ccc(Cl)cc4)C3=N)n2)cc1OC", "half-life": 12}, {"smiles": "CC1=C(C(=O)Nc2nnc(-c3ccccc3)s2)C(c2nn(C)cc2Cl)N=C(Nc2nc3ccccc3o2)N1", "note": "(configuration not stated)", "half-life": 11}, {"smiles": "COc1cc(Nc2nc(-c3ccncc3)nc3ccccc23)ccc1NS(C)(=O)=O", "half-life": 22}, {"smiles": "CC(C)(C)C1CCc2nc(NC(=O)c3cccc(Cl)c3)sc2C1", "note": "(configuration not stated)", "half-life": 20}, {"smiles": "O=S(=O)(Nc1cnc2ccccc2c1)c1ccc(NCc2cccc(Cl)c2O)cc1", "half-life": 18}, {"smiles": "CCCc1cc(C)[nH]c(=O)c1CNC(=O)c1cc(-c2ccnc(N3CCN(C)CC3)c2)cc2c1cnn2C(C)C", "half-life": 27.2}, {"smiles": "Cc1noc(C)c1-c1ccc(Nc2nc(-c3ccncc3)nc3ccccc23)cc1F", "half-life": 10}, {"smiles": "CC1=C(C(=O)Nc2nc3ccccc3s2)C(c2[nH]ncc2Cl)N=C(Nc2nc3ccccc3o2)N1", "note": "(configuration not stated)", "half-life": 10.4}, {"smiles": "CC1CCCCN1c1ncnc(N)c1[N+](=O)[O-]", "note": "(configuration not stated)", "half-life": 15}, {"smiles": "O=C(O)c1ccc(O)c2ncc(N3CCCN(CCc4cccc5ccccc45)CC3)cc12", "half-life": "> 30"}, {"smiles": "CCc1cccc(NC(=O)c2c(C)oc3nc(C)nc(N4CCCC4)c23)c1", "half-life": 1.41}, {"smiles": "CC[C@H](NC(=O)c1c(O)c(-c2ccccc2)nc2ccccc12)c1ccccc1", "half-life": "> 30"}, {"smiles": "N=c1c2ccccc2nnn1-c1ccc(C(F)(F)F)cc1", "half-life": "> 30"}, {"smiles": "C[C@H]1CN(C(=O)c2nn(C)c3ccccc23)C[C@@H]1c1nc(-c2cccnc2)no1", "half-life": 4.4}, {"smiles": "CN(Cc1ccc(/C=C/C(=O)NO)cc1)CC12CC3CC(CC(C3)C1)C2", "half-life": 2.89}, {"smiles": "Cc1cn2c(-c3cn[nH]c3)cnc2c(Nc2ccc(C(=O)N3CCNCC3)cc2F)n1", "half-life": 7}, {"smiles": "Fc1cccc(F)c1Nc1nc(-c2ccncc2)nc2ccccc12", "half-life": 29}, {"smiles": "COCCN1CCNc2nc(COc3ccc(C(C)C)cc3)n(Cc3ccccc3)c2C1=O", "half-life": 1.82}, {"smiles": "COc1ccc(CN(C2CCCCC2C)S(=O)(=O)c2ccc(S(=O)(=O)N(C)C)cc2)cc1OC", "note": "(configuration not stated)", "half-life": 1.6}, {"smiles": "CC(C)c1ccccc1-c1ncc(F)c(NCc2ccc(-c3ccn[nH]3)cc2)n1", "half-life": 2.8}, {"smiles": "Cc1nn(Cc2ccc(Cl)cc2)c(C)c1NC(=O)c1cc(-c2ccc3c(c2)OCO3)on1", "half-life": 6.4}, {"smiles": "O=S(=O)(Nc1ccc(-c2ccccc2)cc1)c1ccc(NCc2ccc(Br)cc2O)cc1", "half-life": 21}]}]}
